From patent US20220241208A1, “PHARMACEUTICAL COMPOSITIONS FOR THE TREATMENT OF HBV” (priority 2019, published 2022)
Values belong to the compound of their own block, whether it stands above or below them.

Key:
[1] = SGF/FaSSIF two-stage gastric transfer non-sink dissolution test; type: physicochemical; conditions: dosed dry (SDD dry powder or API), 30 min SGF, then FaSSIF pH 6.8
Method: In-vitro drug dissolution performance for each SDD prepared in Example 1 and described in Table 1 (i.e., Formulations 1-4) was evaluated by a two-stage gastric transfer non-sink dissolution test, which stimulates pH and bile salt concentrations for both gastric and intestinal exposure. A drug product sample start in 0.1N HCl(aq) (simulated gastric fluid or SGF) for 30 minutes at which point an equal volume of concentrated fasted-state simulated intestinal fluid (FaSSIF) is added to the SGF, resulting in a final pH of 6.8 in FaSSIF (100 mM PBS, 2.24 mg/mL SIF, Biorelevant Inc.).
The dissolution performance of the SDDs of Formulations 1-4 and crystalline Compound 1 was tested. The dissolution test is used to measure the supersaturation of drug above the bulk crystalline Compound 1 solubility in biorelevant intestinal media (FaSSIF) after 30 minutes exposure to a low-pH environment (SGF). During the test, samples were transferred from SGF [theoretical Cmax=1000 μA/mL] to FaSSIF SGF [theoretical Cmax=500 μA/mL].
The dissolution performance of the jet-milled material and crystalline Compound 1 was tested in a non-sink dissolution test, to measure the supersaturation of the drug above the bulk crystalline Compound 1 solubility in biorelevant intestinal media (FaSSIF) after 30 minutes exposure to a low-pH environment (SGF). During the test, samples were transferred from SGF to FaSSIF SGF. […]

HBV [2] = test: Study 202: Compound 1+ETV vs placebo+ETV in treatment-naive HBeAg positive viremic chronic hepatitis B subjects; type: in vivo, human; conditions: Tx naïve HBeAg+ subjects
Method: In this study (also referred to as study 202), 25 treatment-naive HBeAg positive […] subjects are randomized 1:1 (Group 1: […] FIG. 1 depicts a flow chart of the study. […] Subjects (Group 2) with chronic HBV who are currently not being treated receive matching placebo along with SOC NUC (entecavir [ETV]) tablets orally for 24 weeks. Subjects receive SOC NUC (0.5 mg QD of ETV) orally as per approved package insert and matching QD placebo tablets orally. […] Subjects return to the clinic at weeks (wk) 2 and 4 and then monthly up to wk 24. Clinical labs, safety and PK are monitored, as well as HBV biomarkers including HBV DNA, HBV RNA, HBsAg and HBeAg. At weeks 12 and 24, longitudinal serum samples are assayed for detectable virus. Compound 1 is abbreviated as C1 in the tables and figures.

HBV [3] = test: Study 211: open-label extension study of Compound 1 + Nrtl combination therapy; set-up: species or system human; conditions: in vivo
From the text: Compound 1 was investigated in an open-label, extension study (Study 211) to evaluate the safety and efficacy of combination therapy and Compound 1's effect on sustained viral response biomarkers. […] Study 211 utilized the four assays described in Studies 201 and 202.
Participants with chronic HBV who were currently not being treated received Compound 1 along with SOC NUC (entecavir [ETV]) tablets orally for 24 weeks. Eligible participants entered a separate extension study after Week 24 to continue open-label Compound 1 for up to an additional year.

[4] = listed as Crystalline Compound 1

- AUC35-210FaSSIF (area under the curve after transfer to FaSSIF from 35 to 210 minutes) [1]: 5300 min * μgA/mL
- C210 (drug concentration at 180 minutes after transfer to FaSSIF) [1]: 27.6 μgA/mL
- Cmax FaSSIF (maximum drug concentration after transfer to FaSSIF) [1]: 33.4 μgA/mL
- AUC35-210FaSSIF (area under the curve after transfer to FaSSIF from 35 to 210 minutes) [1, 4]: 5300 min * μgA/mL
- Cmax FaSSIF (maximum drug concentration after transfer to FaSSIF) [1, 4]: 33.4 μgA/mL
Structure (SMILES): O=C(NCc1cnc(C(F)(F)F)s1)c1ccc2c(c1)NC(=O)c1ccccc1S2(=O)=O [Formulation 5, 11-oxo-N-((2-(trifluoromethyl)thiazol-5-yl)methyl)-10,11-dihydrodibenzo[b,f][1,4]thiazepine-8-carboxamide 5,5-dioxide]

Structure (SMILES): C=C1[C@H](CO)[C@@H](O)C[C@@H]1n1cnc2c(=O)[nH]c(N)nc21 [ETV, entecavir]
- HBV DNA mean log10 decline (HBV [2]; Week 12): 3.29 log10 IU/mL
- HBV RNA mean log10 decline (HBV [2]; Week 12): 0.44 log10 copies/mL
- HBV DNA mean log10 decline (HBV [2]; Week 24): 3.99 log10 IU/mL
- HBV RNA mean log10 decline (HBV [2]; Week 24): 0.61 log10 copies/mL

Structure (SMILES): O=C(NCc1cnc(C(F)(F)F)s1)c1ccc2c(c1)NC(=O)c1ccccc1S2(=O)=O [Compound 1, 11-oxo-N-((2-(trifluoromethyl)thiazol-5-yl)methyl)-10,11-dihydrodibenzo[b,f][1,4]thiazepine-8-carboxamide 5,5-dioxide]
- effect on pgRNA levels (HBV [3]): multi-log reduction in pgRNA levels

- AUC35-210FaSSIF (area under the curve after transfer to FaSSIF from 35 to 210 minutes) [1]: 5400 min * μgA/mL
- C210 (drug concentration at 180 minutes after transfer to FaSSIF) [1]: 29.6 μgA/mL
- Cmax FaSSIF (maximum drug concentration after transfer to FaSSIF) [1]: 38.0 μgA/mL
Structure (SMILES): O=C(NCc1cnc(C(F)(F)F)s1)c1ccc2c(c1)NC(=O)c1ccccc1S2(=O)=O [Compound 1-Jet Mill, 11-oxo-N-((2-(trifluoromethyl)thiazol-5-yl)methyl)-10,11-dihydrodibenzo[b,f][1,4]thiazepine-8-carboxamide 5,5-dioxide]
